Source: publication PMC8877291, “Design and Synthesis of Arylpiperazine Serotonergic/Dopaminergic Ligands with Neuroprotective Properties” (Molecules, 2022)
Several values for one entry are separate records, joined by “and”; a condition that tells them apart may be missing. Equal values may be shown once.

How the values were obtained:
[1] = target: T1, serotonin 5-HT1A receptor (Homo sapiens, UniProt P08908); assay: 5-HT1A receptor radioligand competition binding ([3H]-8-Hydroxy-DPAT); settings: for Ki ratio of the trimethylene and tetramethylene homologs at 5-HT1A: Ki of a (trimethylene) / Ki of b (tetramethylene) homolog, given as a/b; for Ki: human cloned receptor, HEK293 membranes, 1 nM [3H]-8-Hydroxy-DPAT, ± S.E.M., n = 3 in duplicate, read-out: Affinity Ki 5-HT1A
T1 construct: expressed in transfected cells
T1 sequence (P08908 1-422): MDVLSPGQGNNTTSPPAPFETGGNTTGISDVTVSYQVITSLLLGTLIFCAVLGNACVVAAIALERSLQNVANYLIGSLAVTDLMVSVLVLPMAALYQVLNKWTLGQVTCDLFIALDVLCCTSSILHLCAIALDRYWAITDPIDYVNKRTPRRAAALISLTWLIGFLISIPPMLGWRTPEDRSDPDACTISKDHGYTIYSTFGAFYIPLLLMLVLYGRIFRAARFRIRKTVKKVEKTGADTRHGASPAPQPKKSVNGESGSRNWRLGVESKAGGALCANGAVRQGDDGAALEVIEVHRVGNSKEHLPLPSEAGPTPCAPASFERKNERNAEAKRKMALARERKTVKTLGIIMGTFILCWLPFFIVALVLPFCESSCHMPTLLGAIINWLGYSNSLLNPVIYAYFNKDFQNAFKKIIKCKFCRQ
Protocol: (§1) As a first step, competition radioligand binding assays were carried out for all the compounds at the single concentration of 10 µM, on membrane preparations from stable cell lines heterologously expressing the human cloned 5-HT1A, 5-HT2A, or 5-HT7 receptors. […] For the affinity determination at dopamine receptor subtypes, membrane fractions of human dopamine D2s, D3, D1, and D5 receptor-expressing cells were used. They were co-incubated with [^3H]spiperone (for D2s and D3 receptor) or [^3H]SCH23390 (for D1 and D5 receptor) and appropriate concentrations of test compound for 120 min. Bound radioligand was separated from the free ligand using filtration. Radioactivity was measured by liquid scintillation counting.
The affinity of the compounds for serotonin 5-HT1A receptor was evaluated in membrane preparations from HEK293 cells stably expressing the human cloned receptor, following previously described procedures with minor modifications. Competition binding experiments were performed using 1 nM [^3H]-8-Hydroxy-DPAT (1 mCi/mL, PerkinElmer NET929250UC) as radioligand. Nonspecific binding was assessed in the presence of 10 µM serotonin. […] Assays were carried out in duplicate in 96-well assay plates, in assay buffer (50 mM Tris-HCl, 5 mM MgSO4, pH = 7.4). Assay mixtures were incubated at 37 °C for 120 min, followed by filtration through GF/C glass filter plates, and washed with ice-cold wash buffer (50 mM Tris-HCl, pH = 7.4).

[2] = target: T2, serotonin 5-HT7 receptor (5-HT7A) (Homo sapiens, UniProt P34969); assay: 5-HT7 receptor radioligand competition binding ([3H]-SB269970); settings: human cloned 5-HT7A receptor, HEK293 membranes, 2 nM [3H]-SB269970; ± S.E.M., n = 3 in duplicate; read-out: Affinity Ki 5-HT7
T2 construct: expressed in transfected cells
T2 sequence (P34969 1-445 isoform P34969-2): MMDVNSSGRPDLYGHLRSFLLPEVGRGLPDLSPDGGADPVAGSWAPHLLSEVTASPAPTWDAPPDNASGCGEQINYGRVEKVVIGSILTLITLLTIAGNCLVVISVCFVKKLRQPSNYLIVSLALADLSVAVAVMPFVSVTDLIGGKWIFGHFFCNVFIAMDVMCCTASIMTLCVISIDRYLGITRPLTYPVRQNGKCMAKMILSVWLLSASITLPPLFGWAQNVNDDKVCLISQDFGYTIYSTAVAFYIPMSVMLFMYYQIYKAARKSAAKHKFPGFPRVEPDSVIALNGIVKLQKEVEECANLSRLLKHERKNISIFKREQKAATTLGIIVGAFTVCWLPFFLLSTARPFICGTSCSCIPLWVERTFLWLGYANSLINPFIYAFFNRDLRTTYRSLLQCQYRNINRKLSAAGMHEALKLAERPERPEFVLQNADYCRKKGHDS
Protocol: as §1
The affinity of the compounds for serotonin 5-HT7 receptor was evaluated in membrane preparations from HEK293 cells stably expressing the human cloned 5-HT7A receptor, following previously described procedures with minor modifications. Competition binding experiments were performed using 2 nM [^3H]-SB269970 (34.5 Ci/mmol, 0.25 mCi/mL, Perkin Elmer NET1198U250UC) as radioligand. […] Methiothepine was included in the assays as reference compound. Assays were carried out in duplicate in 96-well assay plates, in assay buffer (50 mM Tris-HCl, 4 mM MgCl2, 1 mM ascorbic acid, 0.1 mM pargyline, pH = 7.4). Assay mixtures were incubated at 37 °C for 60 min, followed by filtration through GF/C glass filter plates, and washing with ice-cold assay buffer. Affinity (equilibrium dissociation constant, Ki) of the compounds was calculated from competition binding curves as indicated above.

[3] = test system: SH-SY5Y neuroblastoma cells; assay: Neuroprotection against H2O2 in SH-SY5Y cells (MTT assay); type: cell-based, human; settings: 3 h pretreatment, both concentrations (1 μM and 5 μM), then 400 μM H2O2 24 h
Protocol: Treatment of SH-SY5Y cells with 400 μM H2O2 for 24 h led to a reduction of cell viability of 72–76% (Figure 3). The protective effect of each compound was determined by pretreating the cells with the test compound for 3 h at the non-toxic doses of 1 μM and 5 μM, and subsequent treatment with 400 μM H2O2 for an additional 24 h.
(§2) SH-SY5Y neuroblastoma cells (cat. CRL-2266, ATCC) were cultured in a 1:1 mixture of Eagle’s Minimum Essential Medium (cat. 15-010-CVR, Corning) and Ham’s F12 medium (cat. 10-080-CVR, Corning). This medium was supplemented with 10% (v/v) Fetal Bovine Serum (cat. 35-079-CV, Corning), 1% (v/v) Glutamine (cat. ECB3000D, Euro Clone) and 1% (v/v) Penicillin—Streptomycin (cat.30-002-CI, Corning). Cells were cultivated at 37 °C with 5% CO2 at saturated humidity.
Determination of neuroprotection against H2O2 was performed using the MTT assay at 24 h. On day 1, 25,000 cells/well were seeded into 96-well plates in a volume of 100 μL. On day 2, the cells were pretreated (3 h) with two drug concentrations (1 μM and 5 μM) before being incubated with 400 μM H2O2 for 24 h. In all the experiments, the various drug-solvents (EtOH, DMSO) were added in each control to evaluate a possible solvent cytotoxicity. After 24 h incubation, MTT (0.5 mg/mL) was added to each well, and after 3–4 h incubation at 37 °C, the supernatant was removed. The formazan crystals were solubilized using 100 μL of DMSO/EtOH (1:1, v/v) and the absorbance values at 570 and 630 nm were determined on the microplate reader Victor 3 from PerkinElmer Life Sciences (Waltham, MA, USA).
Data were analyzed by applying the one-way repeated measures analysis of variance, and Bonferroni’s multiple comparison test followed as a post hoc test. Results are reported as mean SD of at least two to three independent experiments, performed in triplicate. Statistical significance was accepted at p < 0.05.

dopamine D3 receptor = dopamine D3 receptor (Homo sapiens, UniProt P35462); assay: Dopamine D3 receptor competition binding ([3H]spiperone)
dopamine D3 receptor, sequence (P35462 whole entry): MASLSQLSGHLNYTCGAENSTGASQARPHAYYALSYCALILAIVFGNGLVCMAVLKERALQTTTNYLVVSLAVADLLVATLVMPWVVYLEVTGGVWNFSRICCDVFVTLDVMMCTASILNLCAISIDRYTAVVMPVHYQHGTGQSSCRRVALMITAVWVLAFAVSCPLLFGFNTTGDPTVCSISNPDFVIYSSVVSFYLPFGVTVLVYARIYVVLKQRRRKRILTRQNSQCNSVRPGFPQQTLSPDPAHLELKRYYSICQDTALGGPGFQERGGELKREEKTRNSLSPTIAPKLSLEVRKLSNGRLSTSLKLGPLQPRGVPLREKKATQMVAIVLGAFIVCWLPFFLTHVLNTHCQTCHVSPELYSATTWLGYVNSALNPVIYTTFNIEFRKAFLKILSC
Protocol: Competition binding experiments at dopamine D2s and D3 receptor were performed to determine the affinity of the compounds. […] Membrane preparations of transfected CHO-K1 cells stably expressing the human D2s or D3 receptor were performed according to Bautista-Aguilera et al. [26]. The competition binding experiments were conducted as previously reported [26, 27]. Briefly, membrane fractions (D2sR: 25 µg/200 µL; D3R: 20 µg/200 µL) were incubated with [^3H]spiperone (0.2 nM) and test compound for 120 min at room temperature. […] Non-specific binding was determined in the presence of 10 µM haloperidol. Haloperidol was also used as reference compound. Separation of the bound ligand from the free ligand was conducted by filtration through GF/B filters using deionized water.
Data of at least three independent experiments in triplicate were analyzed using GraphPad Prism 8.1 (San Diego, CA, USA). Binding curves were fitted to a non-linear regression model (one-site competition). Ki values were calculated from IC50 values using the Cheng–Prusoff equation. The statistical calculations were performed on –log(Ki).

[4] = test system: SH-SY5Y neuroblastoma cells; assay: Cytotoxicity in SH-SY5Y cells (MTT assay); type: cell-based, human; settings: 48 h, dose range 0.1 to 100 μM
Protocol: Initially, the cytotoxicity of the target compounds was assessed by treating SH-SY5Y cells for 48 h with various concentrations of compounds (0.1 to 100 μM).
as §2
Determination of cell growth was performed using the MTT assay at 48 h. On day 1, 25,000 cells/well were seeded into 96-well plates in a volume of 100 μL. On day 2, the various drug concentrations ([…]–100 μM) were added. In all the experiments, the various drug-solvents (EtOH, DMSO) were added in each control to evaluate possible solvent cytotoxicity. After the established incubation time with drugs (48 h), MTT (0.5 mg/mL) was added to each well, and after 3–4 h incubation at 37 °C, the supernatant was removed. The formazan crystals were solubilized using 100 μL of DMSO/EtOH (1:1, v/v) and the absorbance values at 570 and 630 nm were determined on the microplate reader Victor 3 (PerkinElmer Life Sciences, Waltham, MA, USA).

Row | SMILES | Ki ratio of the trimethylene and tetramethylene homologs at 5-HT1A [1] | Ki [1] | Ki [2] [nM] | recovery of cell viability vs 400 μM H2O2 alone (in words) [3] | Ki (dopamine D3 receptor) [nM] | cytotoxicity (in words) [4]
1 | CC1Oc2ccc(OCCCN3CCN(c4ncccc4-c4ccncc4)CC3)cc2NC1=O (centres unmarked) [Compound 8a, 6-(3-(4-([3,4’-Bipyridin]-2-yl)piperazin-1-yl)propoxy)-2-methyl-2H-benzo[b][1,4]oxazin-3(4H)-one] | 0.7 | < 17.6 nM and 13.1 nM | 10.7 ± 0.7 | statistically significant recovery of cell viability | 1220 | –
2 | CC1Oc2ccc(OCCCCN3CCN(c4ncccc4-c4ccncc4)CC3)cc2NC1=O (centres unmarked) [Compound 8b, 6-(4-(4-([3,4’-Bipyridin]-2-yl)piperazin-1-yl)butoxy)-2-methyl-2H-benzo[b][1,4]oxazin-3(4H)-one] | – | < 17.6 nM and 17.6 nM | 9.38 ± 0.42 | statistically significant recovery of cell viability | 691 | –
3 | COc1ccc(-c2cc(F)ccc2N2CCN(CCCCn3ncc(=O)n(C)c3=O)CC2)cc1 [Compound 9b, 2-(4-(4-(5-Fluoro-4’-methoxy-[1,1’-biphenyl]-2-yl)piperazin-1-yl)butyl)-4-methyl-1,2,4-triazine-3,5(2H,4H)-dione] | – | 23.9 ± 4.9 nM | 45 ± 3.4 | statistically significant recovery of cell viability | > 10000 | –
4 | Cn1c(=O)cnn(CCCN2CCN(c3ccc(F)cc3-c3ccc(C#N)cc3)CC2)c1=O [Compound 10a, 5’-Fluoro-2’-(4-(3-(4-methyl-3,5-dioxo-4,5-dihydro-1,2,4-triazin-2(3H)-yl)propyl)piperazin-1-yl)-[1,1’-biphenyl]-4-carbonitrile] | – | 1090 ± 154 nM | 45.7 ± 1.3 | – | > 10000 | –
5 | Cn1c(=O)cnn(CCCCN2CCN(c3ccc(F)cc3-c3ccc(C#N)cc3)CC2)c1=O [Compound 10b, 5’-Fluoro-2’-(4-(4-(4-methyl-3,5-dioxo-4,5-dihydro-1,2,4-triazin-2(3H)-yl)butyl)piperazin-1-yl)-[1,1’-biphenyl]-4-carbonitrile] | – | 43.4 ± 6.2 nM | 36.5 ± 5.2 | – | > 10000 | –
6 | Cn1c(=O)cnn(CCCN2CCN(c3ncccc3-c3ccncc3)CC2)c1=O [Compound 11a, 2-(3-(4-([3,4’-Bipyridin]-2-yl)piperazin-1-yl)propyl)-4-methyl-1,2,4-triazine-3,5(2H,4H)-dione] | 52 | 269 ± 18 nM | 44.5 ± 2.2 | – | > 10000 | not cytotoxic
7 | Cn1c(=O)cnn(CCCCN2CCN(c3ncccc3-c3ccncc3)CC2)c1=O [Compound 11b, 2-(4-(4-([3,4’-Bipyridin]-2-yl)piperazin-1-yl)butyl)-4-methyl-1,2,4-triazine-3,5(2H,4H)-dione] | – | < 17.6 nM and 5.19 nM | 79.4 ± 9 | – | > 10000 | not cytotoxic
8 | Cc1cc(=O)oc2cc(OCCCN3CCN(c4ncccc4-c4ccncc4)CC3)ccc12 [Compound 12a, 7-(3-(4-([3,4’-Bipyridin]-2-yl)piperazin-1-yl)propoxy)-4-methyl-2H-chromen-2-one] | 3.7 | 41.5 ± 3 nM | 42.5 ± 6.2 | – | 1080 | –
9 | Cc1cc(=O)oc2cc(OCCCCN3CCN(c4ncccc4-c4ccncc4)CC3)ccc12 [Compound 12b, 7-(4-(4-([3,4’-Bipyridin]-2-yl)piperazin-1-yl)butoxy)-4-methyl-2H-chromen-2-one] | – | < 17.6 nM and 11.3 nM | 52.2 ± 10.6 | – | 424 | –
